Where two headings read alike, the source gives them in different places.
Experiments:
[1] = Pharmacokinetic study in rats; assay type: in vivo, Sprague Dawley rats; details: 2.5 mg kg^−1 in DXR i.v.; for half-life: female, Sprague Dawley, rat, plasma, iv, 2.5 mg/kg, bicompartmental model
Description: DXR was extracted by treating 50 µL of plasma with 10 µL of 1 M Triton X‐100 and 580 µL of 81 mM HCl in isopropanol to allow plasma proteins precipitation. After overnight incubation at 4 °C, samples were centrifuged for 3 min × 3000 rpm and the supernatants were analyzed using an FP‐6500 Jasco spectrofluorometer (λ ex = 470 nm; λ em = 584 nm). DXR concentration in each plasma sample was extrapolated through a calibration curve of standard solutions of either DXR or DXR‐loaded SL for the liposomal formulations. The pharmacokinetic analysis was performed using the PKSolver 2.0 software by applying a bicompartmental model.

SKBR3 cells = test: In vitro cytotoxicity, ATPlite luminescence assay; assay type: cell-based; details: Homo sapiens, SK-BR-3; SKBR3 (HER2+), 24 h treatment + 24 h fresh medium, µM in DXR
Description: (§1) For cytotoxicity experiments, four human cancer cell lines were used, that is, three HER2+ BT474 (ATCC HTB‐20), SKBR3 (ATCC HTB‐ 30) and SKOV3 (ATCC HTB‐77), and the HER2‐ MDA‐MB‐231 (ATCC HTB‐26). Cells were maintained in DMEM medium supplemented with 10% fetal bovine serum (FBS), 1% glutamine, 1% penicillin‐streptomycin, in humidified conditions at 37 °C with 5% CO2.
(§2) The cytotoxic effect of formulations was evaluated on HER2+ (BT474, SKBR3, and SKOV3) and HER2‐ (MDA‐MB‐231) cell lines by means of the ATPlite Luminescence ATP Detection Assay System. The cytotoxic effect of targeted DXR‐loaded liposomal formulations was compared to that of non‐targeted DXR‐loaded liposomes and free DXR (positive control). Cells treated only with the medium were used as control. Briefly, the cells were seeded in black 96‐well plates at a density of 5000 cells/well (SKBR3, SKOV3, and MDA‐MB‐231) and 7500 cells/well (BT474). After 24 h, cells were treated with increasing concentrations of the liposomal formulations (0.01–50 µM in DXR, n = 7) for 24 (SKBR3, SKOV3, and MDA‐MB‐231) or 48 (BT474) h. At the end of the exposure, treatments were replaced by fresh complete medium for 24 h. To quantify ATP production, cells were treated following the manufacturer's instructions, and luminescence was quantified by means of a Victor Nivo multi‐plate reader (PerkinElmer, Waltham, MA, USA). The percentage of cell viability was determined as (luminescencetreated cells/luminescencecontrol cells) × 100. IC50 values were calculated using GraphPad Prism 9.0 (San Diego, CA, USA) by a nonlinear regression model.

SKOV3 cells = test: In vitro cytotoxicity, ATPlite luminescence assay; assay type: cell-based; details: Homo sapiens, SK-OV-3; SKOV3 (HER2+), 24 h treatment + 24 h fresh medium, µM in DXR
Description: as §1, §2

BT474 cells = test: In vitro cytotoxicity, ATPlite luminescence assay; assay type: cell-based; details: Homo sapiens, BT-474; BT474 (HER2+), 48 h treatment + 24 h fresh medium, µM in DXR
Description: as §1, §2

[2] = Toxicological study in rats (blood count, plasma biochemistry, histology); assay type: in vivo, Sprague Dawley rats
Excerpt: The study protocol was approved by the Ethics Committee of the University of Padova and the Italian Ministry of Health (Prot. No. 938/2016‐PR obtained on October 10, 2016), and animals were handled in compliance with national and international guidelines, that is, the Italian Legislative Decree 26/2014 and the “Guide for the Care and Use of Laboratory Animals” by the National Research Council of the National Academies. Female Sprague Dawley rats (140–190 g) were randomly divided into groups of 6 rats each. A dose of 2.5 mg kg^−1 in DXR of either free drug or DXR‐loaded liposomal formulations (SL, SIL, SSIL2) was administered via tail vein to the rats previously anesthetized with isoflurane gas (mixed with O2 in enclosed cages). At scheduled time points, blood samples (≈200 µL) were collected from the tail into heparin‐treated tubes and thereafter immediately centrifuged 15 min × 1500 × g to separate plasma. Rats were euthanized with isoflurane anesthesia 48 h after administration and the blood was collected with an intracardiac puncture to measure complete blood count and plasma biochemistry. These measurements were performed by means of standard laboratory tests.^[ [27] ^] After sacrifice, the main organs (liver, spleen, lungs, kidneys, heart, brain, ovaries) were collected, weighed, washed with saline solution, and frozen in liquid nitrogen. An appropriate amount of each organ was placed in formalin for histological analysis.^[ [28] ^]

COc1cccc2c1C(=O)c1c(O)c3c(c(O)c1C2=O)C[C@@](O)(C(=O)CO)C[C@@H]3O[C@H]1C[C@H](N)[C@H](O)[C@H](C)O1 [DXR, Doxorubicin]
AUC0‐inf [1]: 60 ± 31 ng·h/mL
half-life ([1]; read-out: t 1/2 alpha (converted)): 34.4 ± 21.6 min
half-life ([1]; read-out: t 1/2 beta (converted)): 79.1 ± 48.7 min
IC50 (SKBR3 cells): 0.034 ± 0.026 µM
IC50 (SKOV3 cells): 0.092 ± 0.004 µM
IC50 (BT474 cells): 0.08 ± 0.003 µM
Anemia (red blood cells, hemoglobin, hematocrit decreased versus controls) ([2]; 2.5 mg kg^−1 in DXR i.v., 48 h): anemic
Erythrocytes (RBCs) ([2]; 2.5 mg kg^−1 in DXR i.v., 48 h): 4.61e+12 L⁻¹
Hematocrit ([2]; 2.5 mg kg^−1 in DXR i.v., 48 h): 0.286 L/L
Hemoglobin ([2]; 2.5 mg kg^−1 in DXR i.v., 48 h): 93 ± 10 g/L
Liver histology ([2]; 2.5 mg kg^−1 in DXR i.v., 48 h): small and isolated granulomatous lesion
MCH ([2]; 2.5 mg kg^−1 in DXR i.v., 48 h): 20.3 ± 0.4 pg
MCHC ([2]; 2.5 mg kg^−1 in DXR i.v., 48 h): 329 ± 20 g/L
MCV ([2]; 2.5 mg kg^−1 in DXR i.v., 48 h): 61.8 ± 2.9 fL
Platelets (PLTs) ([2]; 2.5 mg kg^−1 in DXR i.v., 48 h): 811 ± 402 x109/L
RDW ([2]; 2.5 mg kg^−1 in DXR i.v., 48 h): 11.8 ± 0.5%
Spleen histology ([2]; 2.5 mg kg^−1 in DXR i.v., 48 h): slight increased hematopoiesis
Leukocytes (WBCs) ([2]; 2.5 mg kg^−1 in DXR i.v., 48 h after administration): 2.05 ± 1.15 x109/L
Glucose ([2]; plasma biochemistry, 2.5 mg kg^−1 in DXR i.v., 48 h): 10.7 ± 0.8 mmol/L
ALP ([2]; plasma biochemistry, 48 h): 143 ± 36 U/L
ALT ([2]; plasma biochemistry, 48 h): 20 ± 6 U/L
AST ([2]; plasma biochemistry, 48 h): 78 ± 16 U/L
Albumin ([2]; plasma biochemistry, 48 h): 42 ± 3 g/L
Calcium ([2]; plasma biochemistry, 48 h): 2.67 ± 0.09 mmol/L
Chloride ([2]; plasma biochemistry, 48 h): 102 ± 2 mmol/L
Creatinine ([2]; plasma biochemistry, 48 h): 16 ± 2 µM
Direct bilirubin ([2]; plasma biochemistry, 48 h): 0.3 ± 0.2 µM
Inorganic Phosphorous ([2]; plasma biochemistry, 48 h): 2.45 ± 0.16 mmol/L
Potassium ([2]; plasma biochemistry, 48 h): 3.9 ± 0.4 mmol/L
Sodium ([2]; plasma biochemistry, 48 h): 142 ± 1 mmol/L
Total bilirubin ([2]; plasma biochemistry, 48 h): 0.4 ± 0.2 µM
Total cholesterol ([2]; plasma biochemistry, 48 h): 64 ± 9 mg/dL
Triglycerides ([2]; plasma biochemistry, 48 h): 64 ± 37 mg/dL
Urea ([2]; plasma biochemistry, 48 h): 4.7 ± 0.2 mmol/L

Source: article PMC11469322, “Anti‐HER2 Super Stealth Immunoliposomes for Targeted‐Chemotherapy” (Advanced Healthcare Materials, 2023)
